Measurements reported in patent US5126506A, “2',3'-Dideoxy-2'-fluoronucleosides” (Bristol-Myers Company, priority 1990, dated 1992).

Legend:
HIV [1] = assay: Inhibition of cytopathic effect (CPE) in HTLV-1 transformed MT-2 cells infected with HIV virus; type: cell-based; details: MT2, 168 h, anti-HIV in vitro, inhibition of CPE measured seven days after infection, read-out: ID50 (50% inhib. conc.)
Experimental: The assays were done in HTLV-1 transformed MT-2 cells infected with HIV virus. Inhibition of cytopathic effect CPE) was measured seven days after infection in comparison with control infected cells (Elaine Kinney-Thomas,(Bioch. Pharm., vol.36,pp 311-316, 1987).

HIV [2] = details: cited from earlier work; for anti-HIV activity: statement in words
[3] = compared with ddA; cited from earlier work

SMILES | IC50 (HIV [1]) [µM] | other results
Nc1ccn([C@@H]2O[C@H](CO)C[C@@H]2F)c(=O)n1 [Compound 5, 2',3'-Dideoxy-2'-fluoroarabino-cytidine] | 4 | 
Nc1ncnc2c1ncn2[C@@H]1O[C@H](CO)C[C@H]1F [Compound B, 6-amino-(β'D-2',3'-dideoxy-2'-fluororibofuranosyl)-9-H-purine] |  | protection against HIV relative to that seen with ddA (HIV [2]; % of protection seen with ddA): 13%; anti-HIV activity (HIV [2]): active anti-HIV agents; toxicity relative to ddA [3]: more toxic than ddA
Nc1ncnc2c1ncn2[C@@H]1O[C@H](CO)C[C@@H]1F [Compound C, 6-amino-9-(β-D-2',3'-dideoxy-2'-fluoroarabinofuranosyl)-H-purine] |  | activity and potency against HIV relative to AZT or ddA (HIV [2]; compared with AZT or ddA): about as active and potent as AZT or ddA; anti-HIV activity (HIV [2]): active anti-HIV agents

More lines, main results first:

IC50 (HIV [1]) [µM] | SMILES | other results
> 100 | Cc1cn([C@@H]2O[C@H](CO)C[C@@H]2F)c(=O)[nH]c1=O [Compound 7, 2', 3'-Dideoxy-2'-fluoroarabino-thymidine] | 
10 to 100 | Cc1cn([C@@H]2O[C@H](CO)C=C2F)c(=O)[nH]c1=O [Compound 11, 2',3'-Dideoxy-2'3'-didehydro-2'-fluoro-thymidine] | 
15 to 48 | Nc1ccn([C@@H]2O[C@H](CO)C=C2F)c(=O)n1 [Compound 16, 2',3'-Dideoxy-2',3'-dehydro-2'-fluoro-cytidine] | 
> 100 | Cc1cn([C@@H]2O[C@H](CO)[C@@H](N=[N+]=[N-])[C@@H]2F)c(=O)[nH]c1=O [Compound 17, 2',3'-Dideoxy-2'-fluoroarabino-3'-azido-thymidine] | 
